From PMC5601235, “In vivo characterisation of a therapeutically relevant self‐assembling ^18F‐labelled β‐sheet forming peptide and its hydrogel using positron emission tomography” (Journal of Labelled Compounds & Radiopharmaceuticals, 2017)
Like-named read-outs stand apart in the source and are kept apart here. Where a SMILES comes first, the peptide text is derived from it. The star is where a group is joined. X1 = O=C(CO/N=C/c1cccnc1F)*

Tests used:
[1] = Preclinical PET biodistribution of [^18F]FPCA‐F9 solution after tail‐vein injection; assay type: in vivo, C3H mice; details: C3H, mouse, iv, 13 MBq, total radioactivity, i.v. tail vein; for SUV at 1 h: 1 hour postinjection; for SUV at 20 min: 20 minutes postinjection
Procedure: C3H mice were anaesthetised using isoflurane induction 4% and maintained 1.5% in 70% N2O and 30% O2 mixture. [^18F]FPCA‐F9 solution was injected in the tail vein (13 MBq, n = 4) of healthy mice or [^18F]FPCA‐F9 hydrogel was injected subcutaneously into the right flank of different healthy mice (2‐5 MBq, n = 3). The acquisition protocol parameters consisted of a preliminary CT scan to determine attenuation correction factors followed by a 1‐ and 4‐hour PET acquisition time for [^18F]FPCA‐F9 solution and hydrogel, respectively. Major excretory organs, including liver, kidney and bladder as well as bone and hydrogel region (in [^18F]FPCA‐F9 hydrogel scans only), were delineated on CT and uptake was quantified as SUV.

[2] = [^18F]FPCA‐F9 preclinical metabolite analysis (SE‐HPLC of plasma, kidney, liver, urine); assay type: in vivo, C3H mice
Procedure: […] Plasma was extracted from whole blood samples using a Thermo ALC multispeed refrigerated centrifuge PK121R (8720 g, 4°C for 3 minutes). Kidney and liver samples were homogenised and centrifuged (8720 g, 4°C for 3 minutes), and the supernatant was removed for HPLC analysis. Urine samples were directly injected onto HPLC without sample preparation using a GE Superdex peptide 10/300 GL (GE Healthcare, UK) eluted with PBS (1 mL/min, 220 nm).

NCCCC[C@H](NC(=O)[C@H](CCCCN)NC(=O)[C@H](Cc1ccccc1)NC(=O)[C@H](CCC(=O)O)NC(=O)[C@H](Cc1ccccc1)NC(=O)[C@H](CCCCN)NC(=O)[C@H](Cc1ccccc1)NC(=O)[C@H](CCC(=O)O)NC(=O)[C@H](Cc1ccccc1)NC(=O)CO/N=C/c1cccnc1F)C(=O)O [[^18F]FPCA‐F9] (X1-FEFKFEFKK-OH)
SUV at 1 h ([1]; bladder, n = 4, read-out: Bladder uptake): 47.4 ± 7.2 SUV
SUV at 20 min ([1]; bladder, begins to plateau, n = 4, mean ± SD, read-out: Bladder uptake): 53.4 ± 16.6 SUV
SUV at 1 h ([1]; bone, n = 4, read-out: Bone accumulation): 7.8 ± 2.5 SUV
SUV ([1]; kidney, within 5 minutes postinjection, n = 4, read-out: Kidney uptake): 5.9 ± 1.9 SUV
SUV at 5 min ([1]; liver, 5 minutes postinjection, n = 4, read-out: Liver uptake): 1.4 ± 0.1 SUV
SUV at 20 min ([1]; liver, n = 4, read-out: Liver uptake): 0.7 ± 0.1 SUV
Metabolites of [^18F]FPCA‐F9 in liver, kidney, urine and plasma samples (in words) ([2]; SE‐HPLC, parent peak at ~18 minutes): none of the samples analysed showed any metabolite
Plasma stability (in words) ([2]; in vivo, mouse plasma, metabolite analysis by SE‐HPLC): high plasma stability
Radioactivity in second peak at ~8 minutes (larger species, aggregation or protein interaction) ([2]; liver and kidney samples, SE‐HPLC): ~ 5%
Parent ([^18F]FPCA‐F9) fraction, kidney ([2]; mouse kidney homogenate supernatant after i.v. injection of monomer, after 60 minutes, SE‐HPLC radio‐detection, mean ± SD, n = 4): 95% ± 1%
Parent ([^18F]FPCA‐F9) fraction, liver ([2]; mouse liver homogenate supernatant after i.v. injection of monomer, after 60 minutes, SE‐HPLC radio‐detection (Superdex peptide 10/300 GL, PBS), mean ± SD, n = 4): 94% ± 0%
Parent ([^18F]FPCA‐F9) fraction, plasma ([2]; mouse plasma after i.v. injection of monomer, after 60 minutes, SE‐HPLC radio‐detection, mean, n = 4): 100%
Parent ([^18F]FPCA‐F9) fraction, urine ([2]; mouse urine after i.v. injection of monomer, after 60 minutes, SE‐HPLC radio‐detection, mean ± SD, n = 4): 95% ± 1%
Radioactivity in peak at ~12 minutes (larger species) ([2]; urine samples, SE‐HPLC): 5%
